The record followed here is patent publication US20250381165A1, “Method of Use for Benzofuran Compounds” (Tampa Bay Research Institute, Inc., priority 2024, published 2025).

For test [1], the system named is splenocytes (B3Z activation). Description: In vivo SIINFEKL loading, splenocytes used ex vivo to activate B3Z. More on the design: species or system C57BL/6NCrl mice. How it is done:
Six- to ten-week-old male and female C57BL/6NCrl mice (Charles River Laboratories, Wilmington MA; cat. no. 027) were used for all animal studies. The mice were maintained in accord with the NIH Guide for the Care and Use of Laboratory Animals. Experimental procedures were performed in accord with research protocols approved by the Tampa Bay Research Institute's Institutional Animal Care and Use Committee. Mice were maintained in an INOVIVE individually ventilated cage system with 3 mice per cage containing 100% virgin wood pulp bedding (Harlan Teklad™, Harlan Sprague Dawley Inc., Indianapolis, IA; cat. n.o 7099). Water and food (Harlan Teklad™; cat. no. 8640) were available ad libitum. The mice were maintained on a cycle of 12 h of light and 12 h of dark in an environment with a temperature of 74-76° […]. and 40-60% humidity. All cages underwent 40 air changes hourly in the negative pressure mode, in accordance with manufacturer's recommendations. Both the intake and exhaust air from the system were filtered through HEPA filters to maintain a clean environment. Stock solutions of BzFβ were solubilized in alkaline water (pH 10) and then sterile filtered through 0.22 µm syringe filters. BzFβ used for iv or im injections was diluted in 0.9% saline (normal saline). The stock solutions of the SIINFEKL peptide were prepared in 1× calcium/magnesium free Dulbecco's phosphate-buffered saline (DPBS; ThermoFisher Scientific, cat. no. 14190144).
Since the oral route of drug delivery is preferred, various doses of BzFβ (1, 2, 4 mg) were administered by oral gavage, immediately following an iv injection of 50 μg SIINFEKL peptide. One-hour post-treatment the blood and spleens from each mouse was collected. […] The cell count was determined using the MUSE cell viability kit (MCH600103) and MUSE Cell Analyzer (Luminex Corp, Austin TX).
One hour later the splenocytes were isolated and immediately tested for peptide loading or used to activate B3Z cells. […] The colorimetric response was allowed to develop for 15-240 min and the OD 560 nm was measured at various time points using a Synergy HTX plate reader. […]

Test [2] has as its target T1, MHCI/SIINFEKL complex on DC2.4 (Mus musculus, UniProt P01901).
T1 construct: DC2.4 are a C57Bl/6 lineage murine cell line and as such they express MHC class I H-2Kb and H-2Db; endogenous in cells; host or cells: DC2.4 (murine dendritic cell line, from Dr. Kenneth Rock)
T1 sequence (P01901 22-369): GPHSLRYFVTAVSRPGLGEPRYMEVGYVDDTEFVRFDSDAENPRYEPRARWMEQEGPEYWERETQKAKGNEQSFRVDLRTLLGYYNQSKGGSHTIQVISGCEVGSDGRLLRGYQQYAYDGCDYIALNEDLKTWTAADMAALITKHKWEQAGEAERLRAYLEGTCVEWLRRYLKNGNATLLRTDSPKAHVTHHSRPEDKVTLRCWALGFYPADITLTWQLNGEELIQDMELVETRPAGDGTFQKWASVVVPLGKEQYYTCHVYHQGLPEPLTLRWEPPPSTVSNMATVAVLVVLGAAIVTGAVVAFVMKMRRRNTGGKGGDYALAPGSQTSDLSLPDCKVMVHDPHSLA
T1 sequence (P01887 21-119 partner): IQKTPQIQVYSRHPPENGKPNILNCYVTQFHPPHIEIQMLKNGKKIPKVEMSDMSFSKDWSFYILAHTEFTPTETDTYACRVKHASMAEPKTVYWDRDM
The test can be described thus: Displacement of SIINFEKL from DC2.4 after peptide pulse. Format: cell-based, murine. Conditions: 25 μg/mL BzFβ after 1 h pulse 30 nM SIINFEKL; p<0.0001.

Consider `O=C(O)/C=C/c1ccc2occc2c1` [BzFβ, (2E)-3-(1-benzofuran-5-yl)prop-2-enoic acid], for which the “ability of splenocytes to activate B3Z, three routes” value in test [1] (gavage 1 mg, iv 50 μg or im 100 μg after iv 50 μg SIINFEKL, 1 h) was “successful at enhancing the ability of the splenocytes to activate B3Z”. In addition, in test [1] (iv 50 μg BzFβ), the “B3Z response, comparison of routes” value was “greatest response”. Besides, the “B3Z response to splenocytes versus peptide alone” value in test [1] (oral gavage 1, 2, 4 mg after iv 50 μg SIINFEKL, 1 h) is recorded as “significantly greater response”. Further, the “MHCI/SIINFEKL complex staining versus untreated cells” value in test [2] was “significantly reduced”.
